How the values were obtained:
[1] = system: rat model of low-fiber diet-induced constipation; assay: Rat model of low-fiber diet-induced constipation (Example 2)
Method: Compound 2 was weighed and was dissolved in distilled water at preparation concentrations of 3, 10 and 30 mg/mL as the free drug to prepare test compounds.
0.5% methylcellulose (0.5% MC) was used as a vehicle for preparation of lubiprostone. Lubiprostone was weighed and was suspended in 0.5% MC at preparation concentrations of 1, 3 and 10 mg/mL to prepare control substances.
Magnesium sulfate (MgSO4) (Wako pure chemical) was weighed and was dissolved in distilled water at a preparation concentrations of 200 mg/mL to prepare a positive control substance.
A soluble starch, sucrose and lactose monohydrate were weighed at a rate of 6:3:1 and were dissolved in distilled water which was approximately 80% of the amounts of preparation on heating, and then the mixture was added with distilled water to prepare 0.4 g/mL solution of mixed carbohydrate.
A low-fiber diet was prepared based on the literature (Kakino et al. BMC Complementary and Alternative Medicine 2010, 10: 68).
Rats were fed on the low-fiber diet for 1-2 weeks to induce constipation.
Compound 2 (3 mg/kg, 10 mg/kg or 30 mg/kg as free drug), lubiprostone (1 mg/kg, 3 mg/kg or 10 mg/kg), MgSO4 (2000 mg/kg) or a vehicle (distilled water: Control group 1, 0.5% MC: Control group 2) was administered orally at around 9 a.m. using a 1 mL glass syringe and a stomach tube. Then, 0.4 g/mL solution of mixed carbohydrate was administered orally at 2 mL/body to Control group 1 and the groups administered with Compound 2. Distilled water was administered to the normal feed group.
The sum of the fecal weights at the collection times was set as the fecal weight at 24 hours after the administration.
The statistical analysis was made by testing the uniformity of variance using Bartlett's method, and multiple comparison between Control group 1 and the group administered with Compound 2 or Control group 2 and the group administered with lubiprostone was made using Dunnett's method when variance was uniform respectively, and multiple comparison was made using Steel's method when variance was not uniform. In each case, significance level<5% was considered as significant difference.

[2] = system: Loperamide-induced dog constipation model; assay: Loperamide-induced dog constipation model (Example 1); assay type: in vivo; settings: for Dry fecal weight within 24 hours after the administration / Wet fecal weight within 24 hours after the administration / Frequency of bowel movement within 24 hours after the administration: mean of 10 dogs; for Dry fecal weight within 24 hours after the administration: Control group 1.0, Normal group 47.1; for Wet fecal weight within 24 hours after the administration: Control group 2.8, Normal group 136.2; for Frequency of bowel movement within 24 hours after the administration: observation at 17, 21, 24 hours, Control group 0.2, Normal group 2.1
Method: Lubiprostone (TLC Pharma Chem) was weighed and was suspended in 0.5% methylcellulose at preparation concentrations of 0.05 and 0.35 mg/mL to prepare control substances.
Loperamide hydrochloride (Wako pure chemical) was weighed at 0.3, 0.5, 1.0, 2.0, 4.0 or 8.0 mg/kg for each animal and was filled into a gelatin capsule.
Loperamide hydrochloride which was filled into a gelatin capsule was orally administered to dogs (beagle, male, 13-14 months old, 10 dogs, Kitayama-labesu). The dosage was increased from 0.3 mg/kg, and was set at 2.0, 4.0 or 8.0 mg/kg based on the bowel movement condition of each dog.
Tests were performed as a full cross-over trial. More than 5-day washout period was provided between each test, and a recovery of stool form was identified, and then the next test was performed.
A gelatin capsule which was filled with loperamide hydrochloride was administered orally at around 9 a.m. on the first and second days in each test.
The stool form of feces was scored in seven categories based on Bristol Stool Form Scale. The collected feces were dried fully, and then the feces were weighed, and it was set as the dry fecal weight.

healthy adult males = assay: Multiple-dose study in healthy adult males (Example 4); assay type: in vivo, human
Method: Compound 2 at a dose of 2, 5, 10 or 20 mg (free drug equivalent), a placebo, or miglitol at a dose of 50 mg was repetitively administered orally once daily just immediately before breakfast on administration Days 1 and 13, and 3 times daily just immediately before every meal on administration Days 3 to 12 to healthy adult males. For the administration of Compound 2, tablets containing 1, 5 or 10 mg in free drug equivalent were used. The test period was set between administration Day 1 and Day 15. Frequencies of bowel movements were checked during consultation by a doctor, and the adverse events (gastrointestinal disorders) were defined when an abnormal finding (diarrhea or loose stool) was seen based on the stool form and the finding. In this regard, the frequencies of bowel movements in Table 8 show the daily means during fifteen days (time/day).

## O=S(=O)([O-])[O-].[Mg+2] [MgSO4, Magnesium sulfate]
[1]; 2000 mg/kg
  Watery stool: watery stool was reported
[1]; 2000 mg/kg oral
  Fecal weight, effect of positive control: increase of the fecal weight was also shown
[1]; 2000 mg/kg oral, positive control, n=4, Control group 1 0.53
  Fecal weight within 24 hours after the administration: 3.70 g

## CCCCC(F)(F)[C@@]1(O)CC[C@H]2[C@@H](CC(=O)[C@@H]2CCCCCCC(=O)O)O1 [lubiprostone, Lubiprostone, reference compound]
[1]; 1 mg/kg oral in 0.5% MC, n=5, Control group 2 0.58
  Fecal weight within 24 hours after the administration: 0.60 g
[1]; 3 mg/kg oral in 0.5% MC, n=5, Control group 2 0.58
  Fecal weight within 24 hours after the administration: 0.95 g
[1]; 10 mg/kg oral in 0.5% MC, n=5, Control group 2 0.58
  Fecal weight within 24 hours after the administration: 1.25 g
[1]; 10 mg/kg, versus Control group 2, significance level <5%
  Fecal weight during 24 hours versus Control group: significantly higher than in each Control group
[1]; oral
  Dose dependence of fecal weight during 24 hours after the administration: dose-dependently increased
[2]; 0.1 mg/kg or more, significance level <5%
  Wet fecal weight, dry weight and frequency of bowel movements versus Control group: significantly higher than in Control group
[2]; 0.1 mg/kg oral
  Dry fecal weight within 24 hours after the administration: 8.3 g
  Wet fecal weight within 24 hours after the administration: 18.7 g
  Frequency of bowel movement within 24 hours after the administration: 0.9 time
[2]; 0.7 mg/kg oral
  Dry fecal weight within 24 hours after the administration: 21.5 g
  Wet fecal weight within 24 hours after the administration: 55.4 g
  Frequency of bowel movement within 24 hours after the administration: 1.0 time
[2]; all doses of this test
  Increases of loose stool and diarrhea: not observed
[2]; within 24 hours after oral administration
  Dose dependence of wet fecal weight, dry weight and frequency of bowel movements: dose-dependently increased

## OCCN1C[C@H](O)[C@@H](O)[C@H](O)[C@H]1CO [Miglitol, miglitol, reference compound]
Healthy adult males; 50 mg, once daily Days 1 and 13, 3 times daily Days 3 to 12, daily mean during fifteen days, 8 subjects, Placebo 1.0
  Daily frequency of bowel movement after the administration, Mean: 1.0 time/day
Healthy adult males; multiple dose 50 mg, of 8 subjects, Placebo 0
  Number of subject with gastrointestinal disorders: Abdominal pain: 0
Healthy adult males; multiple dose 50 mg, of 8 subjects, Placebo 3
  Number of subject with gastrointestinal disorders: Diarrhea: 2

Reference: patent US9694027B2, “Pyrazole derivative and use thereof for medical purposes” (KISSEI PHARMACEUTICAL CO. LTD., priority 2012, dated 2017)
